Reference: patent US20210255193A1, “LYSINE REACTIVE PROBES AND USES THEREOF” (The Scripps Research Institute, priority 2017, published 2021)

Columns and labels:
Type in all cases: binding
[1] = test system: lysine residues in human cell proteomes (MDA-MB-231, Ramos, Jurkat); assay: isoTOP-ABPP lysine reactivity profiling (0.1 vs 1 mM probe 1)
Method: (§1) STP-alkyne labeling and click chemistry. For concentration-dependent reactivity measurements by isoTOP-ABPP, 0.5 ml proteome aliquots were treated at ambient temperature with 1 mM STP-alkyne 1 (5 μl of 100 mM stock in DMSO) and 0.1 mM STP alkyne 1 (5 μl of 10 mM stock in DMSO), respectively. For competitive isoTOP-ABPP, after in vitro fragment treatment (detailed above), the samples were labeled for 1 h at ambient temperature with 0.1 mM STP-alkyne 1 (5 μl of 10 mM stock in DMSO). Samples were conjugated by copper-mediated azide-alkyne cycloaddition (CuAAC) to either the light (1 mM STP-alkyne or fragment treated) or heavy (0.1 mM STP-alkyne or DMSO treated) TEV tags (10 μl of 5 mM stocks in DMSO, final concentration=100 μM) using tris(2-carboxyethyl)phosphine hydrochloride
(§2) R value calculation and processing. The ratios of light and heavy MS1 peaks for each unique peptide were quantified with a CIMAGE software using default parameters (3 MS1 acquisitions per peak and signal to noise threshold set to 2.5). For reactivity measurements by isoTOP-ABPP, the R value was calculated from the ratio of MS1 peak areas, comparing the 1 mM STP alkyne sample (light TEV tag) with the 0.1 mM STP alkyne sample (heavy TEV tag). For competitive isoTOP-ABPP, the R value was calculated from the ratio of MS1 peak areas, comparing the DMSO treated sample (heavy TEV tag) with the compound treated sample (light TEV tag). […] Ratios for unique peptide entries are calculated for each experiment; overlapping peptides with the same modified lysine (for example, different charge states, MudPIT chromatographic steps or tryptic termini) are grouped together and the median ratio is reported as the final ratio (R). The peptide ratios reported by CIMAGE were further filtered to ensure the removal or correction of low-quality ratios in each individual data set. […]
(§3) Cross-data processing for reactivity profiling. For reactivity profiling, the median of biological replicates of the same condition and cell-line was calculated. For peptides containing several possible modified lysines, the lysine with the highest number of quantification events was used for analysis and the remaining, redundant peptides were reported as alternative modification sites. Peptides were required to be detected in at least one 1 mM vs 0.1 mM and one 0.1 mM vs 0.1 mM data set with the latter R value being smaller than 2.5. […] If the lysine was not detected in any soluble fraction, the R value from the membrane fraction was taken. Additionally, all membrane-only lysines with reactivity values were further required to have been detected in at least one 0.1 mM vs 0.1 mM membrane profiling experiment. […]
(§4) Here, the intrinsic reactivity of lysine residues was assessed in human cell proteomes. In brief, proteomes from three human cancer cell lines were treated (MDA-MB-231, Ramos, and Jurkat cells) with low vs high concentrations of probe 1 (0.1 vs 1 mM, n=4 per group) for 1 h and then analyzed the samples by isoTOP-ABPP, wherein high, medium, and low reactivity lysines were distinguished by their respective isotopic ratio values (R10:1<2, 2<R10:1<5, R10:1>5, respectively). […]

[2] = target: T1, lysine residues in human cell proteomes (MDA-MB-231, Ramos, Jurkat) (Homo sapiens, UniProt Q9NVS9); assay: as above; details: PNPO K100; 1 mM vs 0.1 mM probe 1
T1 construct: endogenous in cells; host or cells: MDA-MB-231, Ramos, Jurkat lysates
Method: as §1, §2, §3, §4

[3] = test system: soluble proteome of the human breast cancer cell line MDA-MB-231; assay: isoTOP-ABPP, residues labeled by probe 1
Method: as §1
Peptide and protein identification. The MS2 spectra were extracted from the raw file using RAW Xtractor. MS2 spectra were searched using the ProLuCID algorithm using a reverse concatenated, nonredundant variant of the Human UniProt database (release-2012_11). Cysteine residues were searched with a static modification for carboxyamidomethylation (+57.02146). For all competitive and reactivity profiling experiments, lysine residues were searched with up to one differential modification for either the light or heavy TEV tags (+464.2491 or +470.26331, respectively). Peptides were required to have at least one tryptic terminus and to contain the TEV modification. ProLuCID data was filtered through DTASelect (version 2.0) to achieve a peptide false-positive rate below 1%.
Differential labeling analysis of residues labeled by probe 1. For analysis of the residues labeled by probe 1, peptide and protein identification was conducted as detailed above with differential modification for either the light or heavy TEV tags (+464.2491 or +470.26331, respectively) allowed on lysine, arginine, aspartate, glutamate, histidine, serine, threonine, tyrosine, asparagine, glutamine and tryptophan. Cysteine was searched with a differential modification for either the light or heavy TEV tags (+413.24185 and +407.22764, respectively).
To assess the scope and selectivity with which 1 reacted with lysine residues in human cell proteomes, initial isoTOP-ABPP experiments were performed as follows. Two equal amounts of the soluble proteome of the human breast cancer cell line MDA-MB-231 (0.75 mg of protein per sample) were treated with 1 (100 μM, 1 h), and then conjugated by copper-catalyzed azide-alkyne cycloaddition (CuAAC) to isotopically differentiated TEV-cleavable, azide-biotin tags (heavy and light, respectively). The heavy and light-tagged samples were then combined, and 1-labeled proteins enriched by streptavidin and proteolytically digested sequentially with trypsin and TEV protease (to release 1-labeled tryptic peptides from the streptavidin support), furnishing isotopic (heavy/light) peptide pairs that were analyzed by multidimensional liquid chromatography-MS(LC/LC-MS/MS). Measurement of the MS1 chromatographic peak ratios for light/heavy peptide pairs provided an isoTOP-ABPP ratio or R value, which centered on about 1.0 for the more than 5000 probe 1-labeled peptides quantified in this initial study. […] Because lysine modification creates a missed trypsin cleavage site, the fractions of alternative amino-acid modification assignments were further assessed for their occurrence on peptides harboring a missed lysine cleavage site. […]

[4] = 1 100 μM, 1 h, pilot experiment

T1 sequence (Q9NVS9 whole entry): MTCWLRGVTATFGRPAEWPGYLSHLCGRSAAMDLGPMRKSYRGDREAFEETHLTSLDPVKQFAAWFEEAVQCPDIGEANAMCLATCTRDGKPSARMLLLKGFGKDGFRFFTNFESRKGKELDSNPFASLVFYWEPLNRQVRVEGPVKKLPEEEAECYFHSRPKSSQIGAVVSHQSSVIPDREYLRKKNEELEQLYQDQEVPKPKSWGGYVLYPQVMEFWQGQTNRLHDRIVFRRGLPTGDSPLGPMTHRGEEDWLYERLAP

Structure (SMILES): C#CCCC(=O)Oc1c(F)c(F)c(S(=O)(=O)[O-])c(F)c1F.[Na+] [probe 1, reference compound]
- selectivity for lysine modification over other amino acids ([1]; 1 mM probe): excellent selectivity for lysine modification over other amino acids
- hyper-reactive lysines (R10:1 <2), total residues ([1]; 0.1 vs 1 mM probe 1, 1 h): 310
- quantified lysines with R10:1 values = 10 (low intrinsic reactivity) ([1]; 0.1 vs 1 mM probe 1, 1 h): > 50%
- quantified lysines with hyper-reactivity with probe 1 (R10:1 values <2) ([1]; 0.1 vs 1 mM probe 1, 1 h): < 10%
- R10:1 lysine reactivity ratio [2]: 0.7
- reactivity and selectivity for lysine residues in the human proteome ([3]; 1 100 μM): broad reactivity and good selectivity for lysine residues
- probe 1-labeled peptides quantified ([3]; 1 100 μM, 1 h): more than 5000
- 1-labeled peptides assigned as uniquely modified on lysine residues [3, 4]: > 52%
- remaining 1-labeled peptides assigned with lysine modifications as well as alternative residue modifications [3, 4]: 54%
- probe 1 modifications assigned to serine, of the total 1-labeled peptides ([3]; after filtering missed lysine cleavage events): about 8%
